Assay results taken from patent US11168073B2, “3,3-difluoroallylamines or salts thereof and pharmaceutical compositions comprising the same” (YUHAN CORPORATION, priority 2018, dated 2021).
Structures can show the parent of a compound that is named as a salt.

Tests used:
Assay type in all cases: biochemical
[1] = target: T1, recombinant human VAP-1 (Homo sapiens, UniProt Q16853); assay: Activity evaluation on recombinant human VAP-1 (Amplex Red/HRP-coupled hydrogen peroxide assay, benzylamine substrate); conditions: recombinant human VAP-1; 30 min preincubation at 37° C.; 1 mM benzylamine; read-out: Inhibitory Activity (IC50, nM) human VAP-1
T1 construct: purchased R&D systems
T1 sequence (Q16853 1-763): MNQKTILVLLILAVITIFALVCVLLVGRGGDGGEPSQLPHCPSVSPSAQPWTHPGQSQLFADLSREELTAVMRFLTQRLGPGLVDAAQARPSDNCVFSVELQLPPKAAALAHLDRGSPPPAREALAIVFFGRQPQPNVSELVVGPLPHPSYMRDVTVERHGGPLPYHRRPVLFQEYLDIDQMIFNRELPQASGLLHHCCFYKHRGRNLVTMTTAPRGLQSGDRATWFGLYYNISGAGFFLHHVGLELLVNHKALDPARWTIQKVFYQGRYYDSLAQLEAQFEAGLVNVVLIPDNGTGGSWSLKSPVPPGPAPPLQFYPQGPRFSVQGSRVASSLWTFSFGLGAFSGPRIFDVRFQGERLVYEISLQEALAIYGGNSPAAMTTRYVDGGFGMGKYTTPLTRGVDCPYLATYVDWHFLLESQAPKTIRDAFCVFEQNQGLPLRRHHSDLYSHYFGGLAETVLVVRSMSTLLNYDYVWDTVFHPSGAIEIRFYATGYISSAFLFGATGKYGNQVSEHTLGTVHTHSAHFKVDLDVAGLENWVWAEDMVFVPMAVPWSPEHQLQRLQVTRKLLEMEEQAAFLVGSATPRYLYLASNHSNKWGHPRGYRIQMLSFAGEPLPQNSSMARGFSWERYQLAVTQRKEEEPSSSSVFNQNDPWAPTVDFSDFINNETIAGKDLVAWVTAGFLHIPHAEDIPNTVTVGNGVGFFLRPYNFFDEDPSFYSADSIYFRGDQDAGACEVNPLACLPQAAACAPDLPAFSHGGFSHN
Outline: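 Hydrogen peroxide from benzylamine (1 mM) oxidation by human recombinant VAP-1 detected via HRP-coupled Amplex Red (200 uM) fluorescence, kinetic over 1–2 h. Enzyme and compound preincubated 30 min at 37 °C, pH 7.4 phosphate; 8-point dose response, signal-rate decrease versus DMSO control fitted to four-parameter logistic for IC50.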

[2] = target: T2, recombinant human MAO-A (monoamine oxidase-A) (Homo sapiens, UniProt P21397); assay: Activity evaluation on recombinant human MAO-A (Amplex Red/HRP-coupled assay, 0.5 mM tyramine substrate); conditions: 0.5 mM tyramine, read-out: Inhibitory Activity (IC50, nM) MAO-A
T2 construct: purchased Sigma-Aldrich
T2 sequence (P21397 1-527): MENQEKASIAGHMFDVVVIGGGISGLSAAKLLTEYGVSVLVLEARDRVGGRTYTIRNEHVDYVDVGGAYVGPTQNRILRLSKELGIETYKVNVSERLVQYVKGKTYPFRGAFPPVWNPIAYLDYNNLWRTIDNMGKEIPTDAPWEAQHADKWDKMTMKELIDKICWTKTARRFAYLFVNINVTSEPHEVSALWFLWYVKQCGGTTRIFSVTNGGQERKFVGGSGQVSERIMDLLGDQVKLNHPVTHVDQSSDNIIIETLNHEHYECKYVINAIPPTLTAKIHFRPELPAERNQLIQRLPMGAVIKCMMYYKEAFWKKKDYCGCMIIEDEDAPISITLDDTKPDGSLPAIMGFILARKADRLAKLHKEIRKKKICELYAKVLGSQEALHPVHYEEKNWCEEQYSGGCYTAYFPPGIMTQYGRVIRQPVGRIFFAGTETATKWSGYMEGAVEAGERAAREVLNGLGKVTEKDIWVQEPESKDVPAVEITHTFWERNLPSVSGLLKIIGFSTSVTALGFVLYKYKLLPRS
Outline: (§1)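 Each oxidase is tested with its own substrate: MAO-A with 0.5 mM tyramine, MAO-B with 1 mM benzylamine, DAO with 1 mM putrescine. After 30 min enzyme-compound preincubation at 37 °C, Amplex Red (200 uM) plus HRP (1 U/mL) reports H2O2 as fluorescence; IC50 is fitted from eight-point curves.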

[3] = target: T3, recombinant human MAO-B (monoamine oxidase-B) (Homo sapiens, UniProt P27338); assay: Activity evaluation on recombinant human MAO-B (Amplex Red/HRP-coupled assay, 1 mM benzylamine substrate); conditions: 1 mM benzylamine, read-out: Inhibitory Activity (IC50, nM) MAO-B
T3 construct: purchased Sigma-Aldrich
T3 sequence (P27338 1-520): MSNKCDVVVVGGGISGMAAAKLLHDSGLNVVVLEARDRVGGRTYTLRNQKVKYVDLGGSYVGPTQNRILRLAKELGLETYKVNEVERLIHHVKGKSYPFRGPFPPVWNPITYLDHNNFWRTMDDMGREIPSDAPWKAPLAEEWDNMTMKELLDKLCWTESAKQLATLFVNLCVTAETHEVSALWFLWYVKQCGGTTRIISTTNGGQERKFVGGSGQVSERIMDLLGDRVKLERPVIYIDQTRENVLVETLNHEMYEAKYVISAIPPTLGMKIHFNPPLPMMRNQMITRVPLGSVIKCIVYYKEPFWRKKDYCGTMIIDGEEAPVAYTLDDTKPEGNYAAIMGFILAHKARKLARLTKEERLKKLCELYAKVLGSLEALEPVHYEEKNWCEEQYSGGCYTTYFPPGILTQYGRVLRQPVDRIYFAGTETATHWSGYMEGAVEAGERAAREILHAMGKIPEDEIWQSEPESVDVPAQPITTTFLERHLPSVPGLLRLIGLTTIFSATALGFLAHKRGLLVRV
Outline: as §1

[4] = target: T4, recombinant human DAO (diamine oxidase) (Homo sapiens, UniProt P19801); assay: Activity evaluation on recombinant human DAO (Amplex Red/HRP-coupled assay, 1 mM putrescine substrate); conditions: 1 mM putrescine, read-out: Inhibitory Activity (IC50, nM) DAO
T4 construct: purchased R&D systems
T4 sequence (P19801 20-751): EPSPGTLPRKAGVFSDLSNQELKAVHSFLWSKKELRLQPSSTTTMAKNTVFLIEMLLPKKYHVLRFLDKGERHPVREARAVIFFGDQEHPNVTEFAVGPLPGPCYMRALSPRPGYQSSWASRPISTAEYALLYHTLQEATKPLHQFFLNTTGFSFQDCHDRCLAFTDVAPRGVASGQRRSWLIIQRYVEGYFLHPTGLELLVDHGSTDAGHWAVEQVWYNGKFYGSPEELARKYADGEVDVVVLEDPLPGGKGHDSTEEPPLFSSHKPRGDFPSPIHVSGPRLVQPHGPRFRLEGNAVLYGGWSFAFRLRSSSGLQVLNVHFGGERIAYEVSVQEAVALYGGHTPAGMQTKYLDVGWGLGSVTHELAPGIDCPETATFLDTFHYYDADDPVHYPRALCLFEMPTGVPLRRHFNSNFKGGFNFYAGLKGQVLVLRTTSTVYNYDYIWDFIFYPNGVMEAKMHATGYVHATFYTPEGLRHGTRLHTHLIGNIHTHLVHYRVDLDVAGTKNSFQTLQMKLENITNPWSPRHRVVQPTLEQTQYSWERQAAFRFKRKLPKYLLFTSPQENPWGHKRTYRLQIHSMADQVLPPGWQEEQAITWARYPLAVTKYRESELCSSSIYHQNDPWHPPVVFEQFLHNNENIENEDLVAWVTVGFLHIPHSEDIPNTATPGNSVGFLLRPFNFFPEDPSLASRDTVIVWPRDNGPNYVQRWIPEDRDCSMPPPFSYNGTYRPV
Outline: as §1

IC50 [1] | IC50 [2] | IC50 [3] | IC50 [4] | Compound
1 nM | > 100000 nM | 31000 nM | 61 nM | NCC(Cn1ncn(-c2cccc(-c3ccc(C(F)(F)F)nc3)n2)c1=O)=C(F)F [Example 48, 2-[2-(aminomethyl)-3,3-difluoro-allyl]-4-[6-[6-(trifluoromethyl)-3-pyridyl]-2-pyridyl]-1,2,4-triazol-3-one Trifluoroacetate]
1.6 nM | > 100000 nM | > 100000 nM | 490 nM | CN(C)c1ccc(-c2cccc(-n3cnn(CC(CN)=C(F)F)c3=O)n2)cn1 [Example 49, 2-[2-(aminomethyl)-3,3-difluoro-allyl]-4-[6-[6-(dimethylamino)-3-pyridyl]-2-pyridyl]-1,2,4-triazol-3-one Trifluoroacetate]
1.5 nM | > 100000 nM | 13000 nM | 1200 nM | NCC(Cn1ncn(-c2cccc(-c3ccc4c(c3)OCO4)n2)c1=O)=C(F)F [Example 50, 2-[2-(aminomethyl)-3,3-difluoro-allyl]-4-[6-(1,3-benzodioxol-5-yl)-2-pyridyl]-1,2,4-triazol-3-one Trifluoroacetate]
0.6 nM | > 100000 nM | 28000 nM | 520 nM | Cc1cc(-c2cccc(-n3cnn(CC(CN)=C(F)F)c3=O)n2)cc2c1NC(=O)CC2 [Example 51, 6-[6-[1-[2-(aminomethyl)-3,3-difluoro-allyl]-5-oxo-1,2,4-triazol-4-yl]-2-pyridyl]-8-methyl-3,4-dihydro-1H-quinolin-2-one Trifluoroacetate]
0.9 nM | > 100000 nM | 23000 nM | 300 nM | CN1C(=O)CCc2cc(-c3cccc(-n4cnn(CC(CN)=C(F)F)c4=O)n3)ccc21 [Example 52, 6-[6-[1-[2-(aminomethyl)-3,3-difluoro-allyl]-5-oxo-1,2,4-triazol-4-yl]-2-pyridyl]-1-methyl-3,4-dihydroquinolin-2-one Trifluoroacetate]
1.3 nM | > 100000 nM | > 100000 nM | 1710 nM | CCn1cc(-c2cccc(-n3cnn(CC(CN)=C(F)F)c3=O)n2)cn1 [Example 53, 2-[2-(aminomethyl)-3,3-difluoro-allyl]-4-[6-(1-ethylpyrazol-4-yl)-2-pyridyl]-1,2,4-triazol-3-one Trifluoroacetate]
4.9 nM | > 100000 nM | > 100000 nM | 480 nM | CS(=O)(=O)c1ccc(-c2ccnc(-n3cnn(CC(CN)=C(F)F)c3=O)c2)cc1 [Example 54, 2-[2-(aminomethyl)-3,3-difluoro-allyl]-4-[4-(4-methylsulfonylphenyl)-2-pyridyl]-1,2,4-triazol-3-one Trifluoroacetate]
6.6 nM | > 100000 nM | > 100000 nM | 620 nM | NCC(Cn1ncn(-c2cc(-c3ccc(N4CCNCC4)cc3)ccn2)c1=O)=C(F)F [Example 55, 2-[2-(aminomethyl)-3,3-difluoro-allyl]-4-[4-(4-piperazin-1-ylphenyl)-2-pyridyl]-1,2,4-triazol-3-one Ditrifluoroacetate]
1.6 nM | > 100000 nM | 79600 nM | 75 nM | NCC(Cn1ncn(-c2cc(-c3ccc(C(F)(F)F)nc3)ccn2)c1=O)=C(F)F [Example 56, 2-[2-(aminomethyl)-3,3-difluoro-allyl]-4-[4-[6-(trifluoromethyl)-3-pyridyl]-2-pyridyl]-1,2,4-triazol-3-one Trifluoroacetate]
0.9 nM | > 100000 nM | 56400 nM | 30 nM | CN(C)c1ccc(-c2ccnc(-n3cnn(CC(CN)=C(F)F)c3=O)c2)cn1 [Example 57, 2-[2-(aminomethyl)-3,3-difluoro-allyl]-4-[4-[6-(dimethylamino)-3-pyridyl]-2-pyridyl]-1,2,4-triazol-3-one Trifluoroacetate]
2.2 nM | > 100000 nM | > 100000 nM | 1700 nM | NCC(Cn1ncn(-c2cc(-c3ccc4c(c3)OCO4)ccn2)c1=O)=C(F)F [Example 58, 2-[2-(aminomethyl)-3,3-difluoro-allyl]-4-[4-(1,3-benzodioxol-5-yl)-2-pyridyl]-1,2,4-triazol-3-one Trifluoroacetate]
0.5 nM | > 100000 nM | > 100000 nM | 84 nM | Cc1cc(-c2ccnc(-n3cnn(CC(CN)=C(F)F)c3=O)c2)cc2c1NC(=O)CC2 [Example 59, 6-[2-[1-[2-(aminomethyl)-3,3-difluoro-allyl]-5-oxo-1,2,4-triazol-4-yl]-4-pyridyl]-8-methyl-3,4-dihydro-1H-quinolin-2-one Trifluoroacetate]
1.3 nM | > 100000 nM | > 100000 nM | 810 nM | CCn1cc(-c2ccnc(-n3cnn(CC(CN)=C(F)F)c3=O)c2)cn1 [Example 60, 2-[2-(aminomethyl)-3,3-difluoro-allyl]-4-[4-(1-ethylpyrazol-4-yl)-2-pyridyl]-1,2,4-triazol-3-one Trifluoroacetate]
0.7 nM | > 100000 nM | 14000 nM | 19 nM | CS(=O)(=O)c1ccc(-c2cc(-n3cnn(CC(CN)=C(F)F)c3=O)ccn2)cc1 [Example 61, 2-[2-(aminomethyl)-3,3-difluoro-allyl]-4-[2-(4-methylsulfonylphenyl)-4-pyridyl]-1,2,4-triazol-3-one Trifluoroacetate]
